{
  "source": "paper PMC5218480",
  "about": "(PLoS ONE, 2017)",
  "tested_on": "MV-4-11 cells",
  "experiment": "Gene expression microarray analysis (Affymetrix PrimeView) and GSEA",
  "type": "cell-based, human",
  "set-up": "RFU PODN (11730768_x_at) / Fold change /veh PODN (11730768_x_at) / RFU LINC00158 (11744669_a_at) / Fold change /veh LINC00158 (11744669_a_at) / RFU DUSP10 (11751237_a_at) / Fold change /veh DUSP10 (11751237_a_at) / RFU ID3 (11757404_x_at) / Fold change /veh ID3 (11757404_x_at) / RFU PLEKHG5 (11737974_s_at) / Fold change /veh PLEKHG5 (11737974_s_at) / RFU LRRC4B (11730491_at) / Fold change /veh LRRC4B (11730491_at) / RFU GIMAP4 (11747438_a_at) / Fold change /veh GIMAP4 (11747438_a_at) / RFU KRT8 (11758183_x_at) / Fold change /veh KRT8 (11758183_x_at) / RFU CNN1 (11734310_a_at) / Fold change /veh CNN1 (11734310_a_at) / RFU VPS37D (11726825_at) / Fold change /veh VPS37D (11726825_at) / RFU C10orf10 (11716522_x_at) / Fold change /veh C10orf10 (11716522_x_at) / RFU KIR2DL2 /// KIR2DL4 /// KIR2DL5A /// KIR2DL5B /// KIR2DS1 /// KIR2DS2 /// KIR2DS3 /// KIR2DS4 /// KIR3DL3 /// KIR3DL3 /// KIR3DS1 (11738374_at) / Fold change /veh KIR2DL2 /// KIR2DL4 /// KIR2DL5A /// KIR2DL5B /// KIR2DS1 /// KIR2DS2 /// KIR2DS3 /// KIR2DS4 /// KIR3DL3 /// KIR3DL3 /// KIR3DS1 (11738374_at) / RFU C1QL1 (11718748_at) / Fold change /veh C1QL1 (11718748_at) / RFU TMPRSS4 (11747572_a_at) / Fold change /veh TMPRSS4 (11747572_a_at) / RFU HAMP (11756126_x_at) / Fold change /veh HAMP (11756126_x_at) / RFU RNFT2 (11725882_a_at) / Fold change /veh RNFT2 (11725882_a_at) / RFU NR4A2 (11747474_a_at) / Fold change /veh NR4A2 (11747474_a_at) / RFU ABCC12 (11746883_a_at) / Fold change /veh ABCC12 (11746883_a_at) / RFU TMEM136 (11760407_x_at) / Fold change /veh TMEM136 (11760407_x_at) / RFU CLDN22 /// WWC2 (11732394_at) / Fold change /veh CLDN22 /// WWC2 (11732394_at) / RFU HLA-DPB1 (11760878_x_at) / Fold change /veh HLA-DPB1 (11760878_x_at) / RFU SPINT1 (11716480_a_at) / Fold change /veh SPINT1 (11716480_a_at) / RFU GAP43 (11754022_s_at) / Fold change /veh GAP43 (11754022_s_at) / RFU A4GNT (11735810_at) / Fold change /veh A4GNT (11735810_at) / RFU PRB3 (11715151_x_at) / Fold change /veh PRB3 (11715151_x_at) / RFU TUBB4B (11761932_at) / Fold change /veh TUBB4B (11761932_at) / RFU CAPN14 (11732068_a_at) / Fold change /veh CAPN14 (11732068_a_at) / RFU TMCC2 (11721928_a_at) / Fold change /veh TMCC2 (11721928_a_at) / RFU IRGQ (11745062_a_at) / Fold change /veh IRGQ (11745062_a_at) / RFU FAM174B (11720279_a_at) / Fold change /veh FAM174B (11720279_a_at) / RFU TMPRSS4 (11748680_a_at) / Fold change /veh TMPRSS4 (11748680_a_at) / RFU FAM212B (11763350_a_at) / Fold change /veh FAM212B (11763350_a_at) / RFU PLEKHG5 (11743358_a_at) / Fold change /veh PLEKHG5 (11743358_a_at) / RFU ZSCAN30 (11745921_a_at) / Fold change /veh ZSCAN30 (11745921_a_at) / RFU CMKLR1 (11741424_a_at) / Fold change /veh CMKLR1 (11741424_a_at) / RFU LOC101060620 /// MAPK8IP1 (11723275_at) / Fold change /veh LOC101060620 /// MAPK8IP1 (11723275_at) / RFU SPTSSB (11747773_x_at) / Fold change /veh SPTSSB (11747773_x_at) / RFU PRSS12 (11739890_at) / Fold change /veh PRSS12 (11739890_at) / RFU BIN1 (11741810_x_at) / Fold change /veh BIN1 (11741810_x_at) / RFU WNT11 (11732464_a_at) / Fold change /veh WNT11 (11732464_a_at) / RFU C10orf10 (11716521_a_at) / Fold change /veh C10orf10 (11716521_a_at) / RFU C5orf56 (11738089_at) / Fold change /veh C5orf56 (11738089_at) / RFU CYB561 (11721691_x_at) / Fold change /veh CYB561 (11721691_x_at) / RFU ANKRD19P (11752326_a_at) / Fold change /veh ANKRD19P (11752326_a_at) / RFU OR2T12 /// OR2T33 /// OR2T8 (11738714_s_at) / Fold change /veh OR2T12 /// OR2T33 /// OR2T8 (11738714_s_at) / RFU VCAN (11748164_a_at) / Fold change /veh VCAN (11748164_a_at) / RFU JSRP1 (11732532_at) / Fold change /veh JSRP1 (11732532_at) / RFU KRTAP10-11 (11738290_x_at) / Fold change /veh KRTAP10-11 (11738290_x_at) / RFU MYO3A (11730013_a_at) / Fold change /veh MYO3A (11730013_a_at) / RFU EBF3 (11725865_a_at) / Fold change /veh EBF3 (11725865_a_at) / RFU CAMK2N1 (11719241_x_at) / Fold change /veh CAMK2N1 (11719241_x_at) / RFU C5orf56 (11738088_a_at) / Fold change /veh C5orf56 (11738088_a_at) / RFU OLFML3 (11715873_a_at) / Fold change /veh OLFML3 (11715873_a_at) / RFU LOC100653217 /// NTM (11731650_a_at) / Fold change /veh LOC100653217 /// NTM (11731650_a_at) / RFU MAPK11 (11762145_a_at) / Fold change /veh MAPK11 (11762145_a_at) / RFU FIZ1 (11724087_x_at) / Fold change /veh FIZ1 (11724087_x_at) / RFU OASL (11726364_x_at) / Fold change /veh OASL (11726364_x_at) / RFU SOX15 (11748057_x_at) / Fold change /veh SOX15 (11748057_x_at) / RFU CD79A (11719716_a_at) / Fold change /veh CD79A (11719716_a_at) / RFU HIST1H1D (11736915_at) / Fold change /veh HIST1H1D (11736915_at) / RFU CASKIN2 (11723855_a_at) / Fold change /veh CASKIN2 (11723855_a_at) / RFU LOC730098 (11760151_x_at) / Fold change /veh LOC730098 (11760151_x_at) / RFU OR4N2 (11742367_at) / Fold change /veh OR4N2 (11742367_at) / RFU PRRT2 (11749266_a_at) / Fold change /veh PRRT2 (11749266_a_at) / RFU SNX32 (11753110_a_at) / Fold change /veh SNX32 (11753110_a_at) / RFU CDHR5 (11726645_a_at) / Fold change /veh CDHR5 (11726645_a_at) / RFU RCAN1 (11760418_a_at) / Fold change /veh RCAN1 (11760418_a_at) / RFU FAM167A (11723789_a_at) / Fold change /veh FAM167A (11723789_a_at) / RFU FAM26E (11764081_at) / Fold change /veh FAM26E (11764081_at) / RFU ISYNA1 (11749810_s_at) / Fold change /veh ISYNA1 (11749810_s_at) / RFU ACY1 (11761880_at) / Fold change /veh ACY1 (11761880_at) / RFU 11764098_at / Fold change /veh 11764098_at / RFU SAMD14 (11745864_x_at) / Fold change /veh SAMD14 (11745864_x_at) / RFU NPB (11741838_a_at) / Fold change /veh NPB (11741838_a_at) / RFU TMPRSS6 (11731388_a_at) / Fold change /veh TMPRSS6 (11731388_a_at) / RFU KRTAP10-2 (11738614_at) / Fold change /veh KRTAP10-2 (11738614_at) / RFU ARHGAP8 /// PRR5-ARHGAP8 (11727945_x_at) / Fold change /veh ARHGAP8 /// PRR5-ARHGAP8 (11727945_x_at) / RFU KRTAP5-7 /// NADSYN1 (11734609_at) / Fold change /veh KRTAP5-7 /// NADSYN1 (11734609_at) / RFU RASL12 (11751679_a_at) / Fold change /veh RASL12 (11751679_a_at) / RFU CDKN2B (11736163_a_at) / Fold change /veh CDKN2B (11736163_a_at) / RFU PRF1 (11729649_at) / Fold change /veh PRF1 (11729649_at) / RFU, ZNF638 /// ZNF638-IT1 / Fold change vs veh, ZNF638 /// ZNF638-IT1 / RFU, PANK3 / Fold change vs veh, PANK3 / RFU, SH3YL1 / Fold change vs veh, SH3YL1 / RFU, ZEB2 / Fold change vs veh, ZEB2 / RFU, NRIP1 / Fold change vs veh, NRIP1 / RFU, PTTG1IP / Fold change vs veh, PTTG1IP / RFU, CAPN2 / Fold change vs veh, CAPN2 / RFU, MED14 / Fold change vs veh, MED14 / RFU, SNORA58 / Fold change vs veh, SNORA58 / RFU, C1orf63 / Fold change vs veh, C1orf63 / RFU, LRRFIP1 / Fold change vs veh, LRRFIP1 / RFU, NDUFAF7 / Fold change vs veh, NDUFAF7 / RFU, SLC12A2 / Fold change vs veh, SLC12A2 / RFU, IBTK / Fold change vs veh, IBTK / RFU, ESF1 / Fold change vs veh, ESF1 / Fold change vs veh, TMEM50B / RFU, TAOK1 / Fold change vs veh, TAOK1 / RFU, ACBD3 / Fold change vs veh, ACBD3 / RFU, TMA16 / Fold change vs veh, TMA16 / RFU, RWDD3 / Fold change vs veh, RWDD3 / RFU, BCAT1 / Fold change vs veh, BCAT1 / RFU, EDEM3 / Fold change vs veh, EDEM3 / RFU, TMEM33 / Fold change vs veh, TMEM33 / RFU, WDR75 / Fold change vs veh, WDR75 / RFU, AHCTF1 / Fold change vs veh, AHCTF1 / RFU, TFRC / Fold change vs veh, TFRC / RFU, ZDHHC17 / Fold change vs veh, ZDHHC17 / RFU, NOM1 / Fold change vs veh, NOM1 / RFU, ARL8B / Fold change vs veh, ARL8B / RFU, ZBTB11 / Fold change vs veh, ZBTB11 / RFU, TAMM41 / Fold change vs veh, TAMM41 / RFU, KIAA1704 /// LOC100996395 / Fold change vs veh, KIAA1704 /// LOC100996395 / RFU, ING1 / Fold change vs veh, ING1 / RFU, TRMT61B / Fold change vs veh, TRMT61B / RFU, FUBP3 / Fold change vs veh, FUBP3 / RFU, TP53 / Fold change vs veh, TP53 / RFU, TNKS2 / Fold change vs veh, TNKS2 / RFU, ZFP14 / Fold change vs veh, ZFP14 / RFU, ACTR2 / Fold change vs veh, ACTR2 / RFU, PPP3R1 / Fold change vs veh, PPP3R1 / RFU, PIK3R1 / Fold change vs veh, PIK3R1 / RFU, HNRNPA1 / Fold change vs veh, HNRNPA1 / RFU, RNF170 / Fold change vs veh, RNF170 / RFU, ZNF28 / Fold change vs veh, ZNF28 / RFU, RNGTT / Fold change vs veh, RNGTT / RFU, OGT / Fold change vs veh, OGT / RFU, BRD1 / Fold change vs veh, BRD1 / RFU, MARS / Fold change vs veh, MARS / RFU, ZNF655 / Fold change vs veh, ZNF655 / RFU, FAHD1 / Fold change vs veh, FAHD1 / RFU, BDP1 / Fold change vs veh, BDP1 / RFU, LRRCC1 / Fold change vs veh, LRRCC1 / RFU, ARID1A / Fold change vs veh, ARID1A / RFU, ZNF146 / Fold change vs veh, ZNF146 / RFU, ZNF330 / Fold change vs veh, ZNF330 / RFU, GPN3 / Fold change vs veh, GPN3 / RFU, C9orf123 / Fold change vs veh, C9orf123 / RFU, N4BP2L2 / Fold change vs veh, N4BP2L2 / RFU, ARFIP1 / Fold change vs veh, ARFIP1 / RFU, FAM179B / Fold change vs veh, FAM179B / RFU, BCL10 / Fold change vs veh, BCL10 / RFU, UHRF1BP1L / Fold change vs veh, UHRF1BP1L / RFU, BET1 / Fold change vs veh, BET1 / RFU, CNOT2 / Fold change vs veh, CNOT2 / RFU, ZNF268 / Fold change vs veh, ZNF268 / Fold change vs veh, ZNF507 / RFU, DGCR2 / Fold change vs veh, DGCR2 / RFU, WDSUB1 / Fold change vs veh, WDSUB1 / Fold change vs veh, HSP90B1 /// MIR3652 / RFU, ADSS / Fold change vs veh, ADSS / RFU, GK / Fold change vs veh, GK / RFU, ZNF148 / Fold change vs veh, ZNF148 / RFU, TAF9 / Fold change vs veh, TAF9 / RFU, SLC1A5 / Fold change vs veh, SLC1A5 / RFU, SLMO2 / Fold change vs veh, SLMO2 / RFU, ABCC4 / Fold change vs veh, ABCC4 / RFU, LOC101060439 /// RAP1B / Fold change vs veh, LOC101060439 /// RAP1B / RFU, RFX7 / Fold change vs veh, RFX7 / RFU, GTPBP10 / Fold change vs veh, GTPBP10 / RFU, CNEP1R1 / Fold change vs veh, CNEP1R1 / RFU, BIVM-ERCC5 /// ERCC5 / Fold change vs veh, BIVM-ERCC5 /// ERCC5 / RFU, ILF3 / Fold change vs veh, ILF3 / RFU 11762660_at / Fold change /veh 11762660_at / RFU VCAN (11757783_s_at) / Fold change /veh VCAN (11757783_s_at) / RFU DDX43 (11728927_at) / Fold change /veh DDX43 (11728927_at) / RFU KRT8 (11758188_x_at) / Fold change /veh KRT8 (11758188_x_at) / RFU NKD1 (11759106_at) / Fold change /veh NKD1 (11759106_at) / RFU SRD5A1 (11742802_a_at) / Fold change /veh SRD5A1 (11742802_a_at) / RFU TPSAB1 /// TPSB2 (11721975_s_at) / Fold change /veh TPSAB1 /// TPSB2 (11721975_s_at) / RFU GSTM3 (11746129_a_at) / Fold change /veh GSTM3 (11746129_a_at) / RFU IL23R (11737362_x_at) / Fold change /veh IL23R (11737362_x_at) / RFU TMEM51 (11727254_a_at) / Fold change /veh TMEM51 (11727254_a_at) / RFU PIWIL2 (11732686_x_at) / Fold change /veh PIWIL2 (11732686_x_at) / RFU ORM1 (11744905_x_at) / Fold change /veh ORM1 (11744905_x_at) / RFU CCDC152 (11743942_at) / Fold change /veh CCDC152 (11743942_at) / RFU ECM1 (11717891_a_at) / Fold change /veh ECM1 (11717891_a_at) / RFU IL23R (11748794_a_at) / Fold change /veh IL23R (11748794_a_at) / RFU TNFAIP8L3 (11732012_x_at) / Fold change /veh TNFAIP8L3 (11732012_x_at) / RFU MBOAT4 (11741988_at) / Fold change /veh MBOAT4 (11741988_at) / RFU 11764193_at / Fold change /veh 11764193_at / RFU TMEM53 (11763286_at) / Fold change /veh TMEM53 (11763286_at) / RFU MAGEB2 (11727129_at) / Fold change /veh MAGEB2 (11727129_at) / RFU TMEM200A (11744735_a_at) / Fold change /veh TMEM200A (11744735_a_at) / RFU CCDC152 (11751479_a_at) / Fold change /veh CCDC152 (11751479_a_at) / RFU FAM211A (11726209_a_at) / Fold change /veh FAM211A (11726209_a_at) / RFU RGS16 (11746705_a_at) / Fold change /veh RGS16 (11746705_a_at) / RFU VCAN (11755009_s_at) / Fold change /veh VCAN (11755009_s_at) / RFU RHOB (11743442_s_at) / Fold change /veh RHOB (11743442_s_at) / RFU RGS16 (11720943_a_at) / Fold change /veh RGS16 (11720943_a_at) / RFU RGS16 (11720944_at) / Fold change /veh RGS16 (11720944_at) / RFU, VPS4B / Fold change vs veh, VPS4B / RFU, CREB1 / Fold change vs veh, CREB1 / RFU, DNAJC13 / Fold change vs veh, DNAJC13 / RFU, GNAQ / Fold change vs veh, GNAQ / RFU, CDK5R1 / Fold change vs veh, CDK5R1 / RFU, ZRANB3 / Fold change vs veh, ZRANB3 / RFU, CUL4A / Fold change vs veh, CUL4A / RFU, CCNY / Fold change vs veh, CCNY / RFU, UFL1 / Fold change vs veh, UFL1 / RFU, COG3 / Fold change vs veh, COG3 / RFU, DIAPH2 / Fold change vs veh, DIAPH2 / RFU, SKA2 / Fold change vs veh, SKA2 / RFU, AFF3 / Fold change vs veh, AFF3 / RFU, LMF1 / Fold change vs veh, LMF1 / RFU, IPO11 / Fold change vs veh, IPO11 / RFU, DFFB / Fold change vs veh, DFFB / RFU, FOXP1 / Fold change vs veh, FOXP1 / RFU, CARD8 / Fold change vs veh, CARD8 / RFU, STRN3 / Fold change vs veh, STRN3 / RFU, ADK / Fold change vs veh, ADK / RFU, RASSF2 / Fold change vs veh, RASSF2 / RFU, WIPF1 / Fold change vs veh, WIPF1 / RFU, LARP1B / Fold change vs veh, LARP1B / RFU, RASA1 / Fold change vs veh, RASA1 / RFU, RB1 / Fold change vs veh, RB1 / RFU, PPFIA1 / Fold change vs veh, PPFIA1 / RFU, MAT2A / Fold change vs veh, MAT2A / RFU, CCT5 / Fold change vs veh, CCT5 / RFU, WDR92 / Fold change vs veh, WDR92 / RFU, CUX1 / Fold change vs veh, CUX1 / RFU, TTC7A / Fold change vs veh, TTC7A / RFU, TMEM135 / Fold change vs veh, TMEM135 / RFU, DEPTOR / Fold change vs veh, DEPTOR / RFU, CPM / Fold change vs veh, CPM / RFU, DNAJB6 / Fold change vs veh, DNAJB6 / RFU, CACNA2D3 / Fold change vs veh, CACNA2D3 / RFU, DTX4 / Fold change vs veh, DTX4 / RFU, TFCP2 / Fold change vs veh, TFCP2 / RFU, GMCL1 /// GMCL1P1 / Fold change vs veh, GMCL1 /// GMCL1P1 / RFU, AEBP2 / Fold change vs veh, AEBP2 / RFU, SNHG1 /// SNORD22 /// SNORD25 /// SNORD26 /// SNORD27 /// SNORD28 /// SNORD29 /// SNORD31 / Fold change vs veh, SNHG1 /// SNORD22 /// SNORD25 /// SNORD26 /// SNORD27 /// SNORD28 /// SNORD29 /// SNORD31 / Fold change (Aza/veh), C12orf56 (ProbeSet 11735607_a_at) / Fold change (ACY-1035/veh), C12orf56 (ProbeSet 11735607_a_at) / Fold change (Aza/veh), FGFR1OP (ProbeSet 11751329_s_at) / Fold change (ACY-1035/veh), FGFR1OP (ProbeSet 11751329_s_at) / Fold change (Aza/veh), VPS36 (ProbeSet 11739960_a_at) / Fold change (ACY-1035/veh), VPS36 (ProbeSet 11739960_a_at) / RFU SYPL1 (11715823_x_at) / Fold change /veh SYPL1 (11715823_x_at) / RFU IGFBP7 (11715501_s_at) / Fold change /veh IGFBP7 (11715501_s_at) / RFU REEP3 (11722064_at) / Fold change /veh REEP3 (11722064_at) / RFU IGLL1 (11728026_x_at) / Fold change /veh IGLL1 (11728026_x_at): dose or concentration left out as unconfirmed",
  "conditions": "ProbeSet 11752001_a_at; LIST D",
  "data": [
    {"smiles": "Nc1ncn([C@@H]2O[C@H](CO)[C@@H](O)[C@H]2O)c(=O)n1", "note": "[azacitidine]", "values": [
      {"measurement": "Fold change vs veh, CUL4A", "value": 0.81}
    ]}
  ]
}
